Laboratory results published in ChEMBL document CHEMBL6127139, “Lysine-Targeted Covalent Inhibitors of PI3Kδ Synthesis and Screening by In Situ Interaction Upgradation” (J Med Chem, 2024).

Experiments:
[1] = Chemical reactivity of the compound with N-Boc-Lysine assessed as half-life at 1 uM by HPLC analysis; assay type: physicochemical; details: incubation with N-Boc-Lysine
[2] = Growth inhibition of PI3Kdelta-overexpressing human SU-DHL-6 cells incubated for 72 hrs by MTT assay; assay type: functional
[3] = target: T1, Phosphatidylinositol 4,5-bisphosphate 3-kinase catalytic subunit delta isoform (Homo sapiens, UniProt O00329); test: Inhibition of recombinant PI3Kdelta (unknown origin) using PIP2:3PS as substrate preincubated for 20 mins followed by ATP addition and measured after 1 hrs by ADP-Glo reagent based assay
T1 sequence (O00329 whole entry): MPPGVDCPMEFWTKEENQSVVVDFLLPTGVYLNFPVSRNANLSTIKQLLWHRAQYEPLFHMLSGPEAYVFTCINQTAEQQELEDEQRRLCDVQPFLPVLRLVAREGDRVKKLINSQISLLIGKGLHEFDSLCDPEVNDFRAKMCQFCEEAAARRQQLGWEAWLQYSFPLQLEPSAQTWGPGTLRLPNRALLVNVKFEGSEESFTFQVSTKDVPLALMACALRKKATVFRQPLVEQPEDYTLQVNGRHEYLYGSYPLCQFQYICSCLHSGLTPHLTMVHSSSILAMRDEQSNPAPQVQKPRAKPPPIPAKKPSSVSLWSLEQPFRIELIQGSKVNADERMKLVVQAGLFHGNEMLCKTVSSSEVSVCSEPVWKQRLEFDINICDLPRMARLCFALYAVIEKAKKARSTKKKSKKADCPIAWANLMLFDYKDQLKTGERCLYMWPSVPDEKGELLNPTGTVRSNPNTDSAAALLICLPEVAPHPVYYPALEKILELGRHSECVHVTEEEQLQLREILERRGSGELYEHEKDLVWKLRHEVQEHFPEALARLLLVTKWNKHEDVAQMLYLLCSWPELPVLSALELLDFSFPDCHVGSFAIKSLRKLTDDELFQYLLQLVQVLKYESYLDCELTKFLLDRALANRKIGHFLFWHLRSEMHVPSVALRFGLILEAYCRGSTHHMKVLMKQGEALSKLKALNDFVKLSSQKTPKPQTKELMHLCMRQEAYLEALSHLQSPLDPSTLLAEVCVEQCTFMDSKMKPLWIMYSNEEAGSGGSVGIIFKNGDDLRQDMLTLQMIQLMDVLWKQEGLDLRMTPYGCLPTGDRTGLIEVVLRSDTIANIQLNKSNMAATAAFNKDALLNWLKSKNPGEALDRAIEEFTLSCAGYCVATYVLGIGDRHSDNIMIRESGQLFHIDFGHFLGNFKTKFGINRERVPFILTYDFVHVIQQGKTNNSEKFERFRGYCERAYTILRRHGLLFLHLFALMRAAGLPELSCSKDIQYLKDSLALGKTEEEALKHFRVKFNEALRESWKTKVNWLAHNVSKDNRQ

[4] = Growth inhibition of PI3Kdelta-overexpressing human Pfeiffer cells incubated for 72 hrs by MTT assay; assay type: functional
[5] = target: Phosphatidylinositol 4,5-bisphosphate 3-kinase catalytic subunit alpha isoform (Homo sapiens, UniProt P42336); test: Inhibition of recombinant PI3Kalpha (unknown origin) using PIP2:3PS as substrate preincubated for 20 mins followed by ATP addition and measured after 1 hrs by ADP-Glo reagent based assay
Chain of Phosphatidylinositol 4,5-bisphosphate 3-kinase catalytic subunit alpha isoform (P42336 whole entry, canonical isoform): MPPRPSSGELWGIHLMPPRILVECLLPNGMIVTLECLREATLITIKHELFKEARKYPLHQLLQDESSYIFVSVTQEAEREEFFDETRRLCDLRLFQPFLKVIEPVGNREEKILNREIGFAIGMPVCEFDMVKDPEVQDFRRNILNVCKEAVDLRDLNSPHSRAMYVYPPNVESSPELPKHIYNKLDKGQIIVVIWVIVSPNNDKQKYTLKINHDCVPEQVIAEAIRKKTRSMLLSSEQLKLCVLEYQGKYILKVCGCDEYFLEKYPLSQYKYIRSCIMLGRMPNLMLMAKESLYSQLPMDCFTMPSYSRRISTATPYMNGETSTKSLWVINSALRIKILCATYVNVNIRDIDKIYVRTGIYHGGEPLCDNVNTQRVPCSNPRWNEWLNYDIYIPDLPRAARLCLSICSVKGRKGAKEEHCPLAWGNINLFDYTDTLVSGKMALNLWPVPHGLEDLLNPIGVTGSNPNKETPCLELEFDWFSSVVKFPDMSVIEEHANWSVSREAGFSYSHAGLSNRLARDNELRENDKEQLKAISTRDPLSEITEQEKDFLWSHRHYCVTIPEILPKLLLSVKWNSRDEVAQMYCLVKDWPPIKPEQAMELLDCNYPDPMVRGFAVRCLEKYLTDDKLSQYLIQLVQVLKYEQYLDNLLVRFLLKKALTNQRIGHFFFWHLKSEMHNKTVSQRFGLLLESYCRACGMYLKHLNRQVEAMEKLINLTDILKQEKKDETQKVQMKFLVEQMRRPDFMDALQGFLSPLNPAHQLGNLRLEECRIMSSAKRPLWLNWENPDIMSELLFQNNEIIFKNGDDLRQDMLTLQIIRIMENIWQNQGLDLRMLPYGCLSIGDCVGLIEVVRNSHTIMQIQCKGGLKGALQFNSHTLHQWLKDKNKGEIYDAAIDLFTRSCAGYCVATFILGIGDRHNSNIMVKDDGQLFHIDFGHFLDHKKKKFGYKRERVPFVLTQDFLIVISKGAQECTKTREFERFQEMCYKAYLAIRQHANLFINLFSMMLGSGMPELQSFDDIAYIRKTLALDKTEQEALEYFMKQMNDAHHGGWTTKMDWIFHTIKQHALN

[6] = Selectivity index, ratio of IC50 for inhibition of recombinant PI3Kgamma (unknown origin) using PIP2:3PS as substrate to IC50 for inhibition of recombinant PI3Kdelta (unknown origin) using PIP2:3PS as substrate
[7] = Selectivity index, ratio of IC50 for inhibition of recombinant PI3Kbeta (unknown origin) using PIP2:3PS as substrate to IC50 for inhibition of recombinant PI3Kdelta (unknown origin) using PIP2:3PS as substrate
[8] = Selectivity index, ratio of IC50 for inhibition of recombinant PI3Kalpha (unknown origin) using PIP2:3PS as substrate to IC50 for inhibition of recombinant PI3Kdelta (unknown origin) using PIP2:3PS as substrate
Raji = test: Growth inhibition of human Raji cells incubated for 72 hrs by MTT assay; assay type: functional

Compound	half-life at 1 µM [1] [min]	GI50 [2] [nM]	IC50 [3] [nM]	GI50 [4] [nM]	IC50 [5] [nM]	Ratio IC50 [6]	Ratio IC50 [7]	Ratio IC50 [8]	GI50 (Raji) [nM]
O=Cc1cc(-c2ccc3ncnc(N[C@H]4CCN(C(=O)C5CCOCC5)C4)c3n2)ccc1O	< 1	710	5.58	5480	–	–	–	–	–
COc1ncc(-c2ccc3ncnc(N[C@H]4CCN(C(=O)C5CCOCC5)C4)c3n2)cc1C(=O)Oc1c(F)cc(F)cc1F	< 1	65	4.93	438	> 1000	–	–	–	–
COc1ncc(-c2ccc3ncnc(N[C@H]4CCN(C(=O)C5CCOCC5)C4)c3c2)cc1C(=O)Oc1ccc(C#N)cc1	< 1	27	4.53	479	> 1000	–	–	–	–
COc1ncc(-c2ccc3ncnc(N[C@H]4CCN(C(=O)C5CCOCC5)C4)c3c2)cc1C(=O)Oc1ccc(F)cc1F	3.1	64	1.47	433	39.3	–	–	–	–
COc1ncc(-c2ccc3ncnc(N[C@H]4CCN(C(=O)C5CCOCC5)C4)c3c2)cc1C(=O)Oc1ccc(Cl)cc1	12.7	16	0.79	276	> 1000	–	–	–	–
COc1ncc(-c2ccc3ncnc(N[C@H]4CCN(C(=O)C5CCOCC5)C4)c3c2)cc1C(=O)Oc1c(F)cc(F)cc1F	< 1	32	1.08	260	86.9	–	–	–	–
COc1ncc(-c2ccc3ncnc(N[C@H]4CCN(C(=O)C5CCOCC5)C4)c3n2)cc1C(=O)Oc1cccnc1	2.8	122	0.7	662	254	–	–	–	–
COc1ncc(-c2ccc3ncnc(N[C@H]4CCN(C(=O)C5CCOCC5)C4)c3c2)cc1C=O	2.1	170	48.8	200	–	–	–	–	–
C#Cc1ccc(-c2ccc3ncnc(N[C@H]4CCN(C(=O)C5CCOCC5)C4)c3c2)cc1C=O	1.9	850	2.67	4180	–	–	–	–	–
COc1ncc(-c2ccc3ncnc(N[C@H]4CCN(C(=O)C5CCOCC5)C4)c3n2)cc1CCl	430	340	10.4	570	–	–	–	–	–
COc1ncc(-c2ccc3ncnc(N[C@H]4CCN(C(=O)C5CCOCC5)C4)c3c2)cc1CCl	420	310	24.2	490	–	–	–	–	–
COc1ccc(OC(=O)c2cc(-c3ccc4ncnc(N[C@H]5CCN(C(=O)C6CCOCC6)C5)c4n3)cnc2OC)cc1	359	8	1.17	138	54.2	–	–	–	–
COc1ncc(-c2ccc3ncnc(N[C@H]4CCN(C(=O)C5CCOCC5)C4)c3c2)cc1C(=O)Oc1ccc(Cl)cc1Cl	1.2	142	1.5	346	347	–	–	–	–
O=Cc1cc(-c2ccc3ncnc(N[C@H]4CCN(C(=O)C5CCOCC5)C4)c3c2)ccc1O	< 1	320	6.46	7780	–	–	–	–	–
COc1ncc(-c2ccc3ncnc(N[C@H]4CCN(C(=O)C5CCOCC5)C4)c3n2)cc1C(=O)Oc1ccc(Cl)cc1Cl	1.1	53	1.42	752	> 1000	–	–	–	–
COc1ncc(-c2ccc3ncnc(N[C@H]4CCN(C(=O)C5CCOCC5)C4)c3n2)cc1C(=O)Oc1ccc(F)cc1F	3.2	31	3.19	420	29.8	–	–	–	–
COc1ncc(-c2ccc3ncnc(N[C@H]4CCN(C(=O)C5CCOCC5)C4)c3n2)cc1C(=O)Oc1ccc(Cl)cc1	10.1	157	2.57	776	> 1000	–	–	–	–

Compound	half-life at 1 µM [1] [min]	GI50 [2] [nM]	IC50 [3] [nM]	GI50 [4] [nM]	IC50 [5] [nM]	Ratio IC50 [6]	Ratio IC50 [7]	Ratio IC50 [8]	GI50 (Raji) [nM]
COc1ncc(-c2ccc3ncnc(N[C@H]4CCN(C(=O)C5CCOCC5)C4)c3c2)cc1C(=O)Oc1cccnc1	2.5	19	0.26	199	663	–	–	–	–
C=CC(=O)Nc1cc(-c2ccc3ncnc(N[C@H]4CCN(C(=O)C5CCOCC5)C4)c3n2)cnc1OC	> 1440	650	47.8	1190	–	–	–	–	–
COc1ccc(OC(=O)c2cc(-c3ccc4ncnc(N[C@H]5CCN(C(=O)C6CCOCC6)C5)c4c3)cnc2OC)cc1	387	6	2.02	225	56.5	–	–	–	–
COc1ncc(-c2ccc3ncnc(N[C@H]4CCN(C(=O)C5CCOCC5)C4)c3c2)cc1C(=O)Oc1ccc(C)cc1	353	3	2.47	137	145	–	–	–	–
COc1ncc(-c2ccc3ncnc(N[C@H]4CCN(C(=O)C5CCOCC5)C4)c3n2)cc1C(=O)Oc1ccc([N+](=O)[O-])cc1	< 1	20	2.31	788	10.4	–	–	–	–
C#Cc1ccc(-c2ccc3ncnc(N[C@H]4CCN(C(=O)C5CCOCC5)C4)c3n2)cc1C=O	2.1	430	1.48	2320	–	–	–	–	–
COc1ncc(-c2ccc3ncnc(N[C@H]4CCN(C(=O)C5CCOCC5)C4)c3n2)cc1C(=O)Oc1ccc(C)cc1	326	8	6.11	139	13.5	–	–	–	–
COc1ncc(-c2ccc3ncnc(N[C@H]4CCN(C(=O)C5CCOCC5)C4)c3n2)cc1C=O	2.3	350	93.5	310	–	–	–	–	–
COC(=O)c1cc(-c2ccc3ncnc(N[C@H]4CCN(C(=O)C5CCOCC5)C4)c3n2)cnc1OC	> 1440	42	1.21	447	> 1000	–	–	–	–
COc1ncc(-c2ccc3ncnc(N[C@H]4CCN(C(=O)C5CCOCC5)C4)c3c2)cc1C(=O)Oc1ccc([N+](=O)[O-])cc1	< 1	52	6.6	575	120	–	–	–	–
COc1ncc(-c2ccc3ncnc(N[C@H]4CCN(C(=O)C5CCOCC5)C4)c3n2)cc1C(=O)Oc1ccc(C(F)(F)F)cc1	1.7	96	1.01	1260	93.3	–	–	–	–
COc1ncc(-c2ccc3ncnc(N[C@H]4CCN(C(=O)C5CCOCC5)C4)c3c2)cc1C#N	–	4550	–	–	–	64	97	9	> 10000
COc1ncc(-c2ccc3ncnc(N[C@H]4CCN(C(=O)C5CCOCC5)C4)c3c2)cc1C(=O)Oc1ccc(C(F)(F)F)cc1	1.9	133	0.93	816	330	–	–	–	–
C=CC(=O)Nc1cc(-c2ccc3ncnc(N[C@H]4CCN(C(=O)C5CCOCC5)C4)c3c2)cnc1OC	> 1440	710	8.59	1520	–	–	–	–	–
COc1ncc(-c2ccc3ncnc(N[C@H]4CCN(C(=O)C5CCOCC5)C4)c3n2)cc1C(=O)Oc1ccc(C#N)cc1	< 1	32	1.86	425	51.4	–	–	–	–
COC(=O)c1cc(-c2ccc3ncnc(N[C@H]4CCN(C(=O)C5CCOCC5)C4)c3c2)cnc1OC	> 1440	50	1.59	1240	> 1000	–	–	–	–
